In patent US20230295096A1, “PYRAZOLE CARBOXAMIDE COMPOUNDS FOR TREATMENT OF HBV” (ASSEMBLY BIOSCIENCES, INC., priority 2020, published 2023):
Like-named read-outs stand apart in the source and are kept apart here.

System: HBV
Experiment: Viral load production from HepAD38 cells, qPCR of the HBV core sequence in supernatant
Assay type: cell-based
Summary of the method: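 EC50 and CC50 come from four-parameter logistic fits of supernatant HBV core DNA (TaqMan qPCR, DNA standards, compared with DMSO wells) and of CellTiter-Glo luminescence.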

[1] = Hepatitis B virus, HePAD38, 120 h, HepAD38 cells, 5 days, HBV DNA in supernatant by qPCR, Table 1 ranges, read-out: Activity (viral load lowering EC50)
[2] = Hepatitis B virus, HePAD38, 120 h, HepAD38 cells, 5 days, HBV DNA in supernatant by qPCR, Table 2 ranges, read-out: VL HepAD38 EC50 range

Compound | EC50 [1] | also measured
CN(C)C(=O)NCC1CC2CC(c3nn(C)c(N)c3C(=O)Nc3ccc(F)c(Cl)c3)CC2C1 (single isomer, unassigned) [Example 41, 5-Amino-N-(3-chloro-4-fluorophenyl)-3-(5-((3,3-dimethylureido)methyl)octahydropentalen-2-yl)-1-methyl-1H-pyrazole-4-carboxamide] | < 10 nM | 
Cn1nc(C2CC3CC(CNS(C)(=O)=O)CC3C2)c(C(=O)Nc2ccc(F)c(Cl)c2)c1N (stereo not shown) [Example 88, 5-Amino-N-(3-chloro-4-fluorophenyl)-1-methyl-3-(5-(methylsulfonamidomethyl)octahydropentalen-2-yl)-1H-pyrazole-4-carboxamide] | < 10 nM | 
Cn1ccc(C2(O)CC3CC(c4nn(C)c(N)c4C(=O)Nc4ccc(F)c(Cl)c4)CC3C2)n1 (stereo not shown) [Example 153] | < 10 nM | 
C[C@@H](NC(=O)C1CC2CC(c3nn(C)c(N)c3C(=O)Nc3ccc(F)c(Cl)c3)CC2C1)C(F)(F)F (single isomer, unassigned) [Example 101] | 10 to 50 nM | 
Cn1nc(C2CC3CN(c4ncc(F)cn4)CC3C2)c(C(=O)Nc2ccc(F)c(Cl)c2)c1N (stereo not shown) [Example 125, 5-Amino-N-(3-chloro-4-fluorophenyl)-3-(2-(5-fluoropyrimidin-2-yl)octahydrocyclopenta[c]pyrrol-5-yl)-1-methyl-1H-pyrazole-4-carboxamide] | 10 to 50 nM | 
CNS(=O)(=O)NCC1CC2CC(c3nn(C)c(N)c3C(=O)Nc3ccc(F)c(Cl)c3)CC2C1 (stereo not shown) [Example 83, 5-Amino-N-(3-chloro-4-fluorophenyl)-1-methyl-3-(5-(((N-methylsulfamoyl)amino)methyl)octahydropentalen-2-yl)-1H-pyrazole-4-carboxamide] | < 10 nM | 
CCCS(=O)(=O)NCC1CC2CC(c3nn(C)c(N)c3C(=O)Nc3ccc(F)c(Cl)c3)CC2C1 (stereo not shown) [Example 89, 5-Amino-N-(3-chloro-4-fluorophenyl)-1-methyl-3-(5-(propylsulfonamidomethyl)octahydropentalen-2-yl)-1H-pyrazole-4-carboxamide] | < 10 nM | 
Cn1nc(C2CC3CC(=O)C(c4ccccc4)C3C2)c(C(=O)Nc2ccc(F)c(Cl)c2)c1N (stereo not shown) [Example 140, 5-Amino-N-(3-chloro-4-fluorophenyl)-1-methyl-3-(5-oxo-4-phenyloctahydropentalen-2-yl)-1H-pyrazole-4-carboxamide] |  | EC50 [2]: < 100 nM
Cn1nc(C2CC3CC(O)(c4cccnc4)CC3C2)c(C(=O)Nc2ccc(F)c(Cl)c2)c1N (stereo not shown) [Example 15, 5-Amino-N-(3-chloro-4-fluorophenyl)-3-(5-hydroxy-5-(pyridin-3-yl)octahydropentalen-2-yl)-1-methyl-1H-pyrazole-4-carboxamide] | < 10 nM | 
Cn1nc(C2CC3CC(O)(Cc4ccc(S(C)(=O)=O)cn4)CC3C2)c(C(=O)Nc2ccc(F)c(Cl)c2)c1N (stereo not shown) [Exmaple 165] |  | EC50 (Hepatitis B virus, HePAD38, 120 h, read-out: Activity (viral load lowering EC50), HepAD38 cells, 5 days, HBV DNA in supernatant by qPCR, Table 1 ranges): < 10 nM
Cn1nc(C(F)(F)F)c(C2(O)CC3CC(c4nn(C)c(N)c4C(=O)Nc4ccc(F)c(Cl)c4)CC3C2)n1 (stereo not shown) [Example 207] | < 10 nM | 
Cn1nc(C2CC3CC(O)(c4cn[nH]c4)CC3C2)c(C(=O)Nc2ccc(F)c(Cl)c2)c1N (stereo not shown) [Example 28, 5-Amino-N-(3-chloro-4-fluorophenyl)-3-(5-hydroxy-5-(1H-pyrazol-4-yl)octahydropentalen-2-yl)-1-methyl-1H-pyrazole-4-carboxamide] | 10 to 50 nM | 
Cn1nc(C2CC3CC(CNC(=O)c4ccc(C(F)(F)F)cc4)CC3C2)c(C(=O)Nc2ccc(F)c(Cl)c2)c1N (stereo not shown) [Example 57, 5-Amino-N-(3-chloro-4-fluorophenyl)-1-methyl-3-(5-((4-(trifluoromethyl)benzamido)methyl)octahydropentalen-2-yl)-1H-pyrazole-4-carboxamide] | 10 to 50 nM | 
Cn1nc(C2CC3CC(O)(c4cn(COC(=O)CCC(=O)OCc5ccccc5)nc4C(F)(F)F)CC3C2)c(C(=O)Nc2ccc(F)c(Cl)c2)c1N (stereo not shown) [Example 230] | < 10 nM | 
Cc1ncc(C2(O)CC3CC(c4nn(C)c(N)c4C(=O)Nc4ccc(F)c(Cl)c4)CC3C2)s1 (stereo not shown) [Example 161] | < 10 nM | 
Cn1nc(C2CC3CC(CNC(=O)C45CC(C4)C5)CC3C2)c(C(=O)Nc2ccc(F)c(Cl)c2)c1N (stereo not shown) [Example 69, 5-Amino-3-(5-((bicyclo[1.1.1]pentane-1-carboxamido)methyl)octahydropentalen-2-yl)-N-(3-chloro-4-fluorophenyl)-1-methyl-1H-pyrazole-4-carboxamide] | < 10 nM | 
Cn1nc(C2CC3CN(c4ncc(C(F)(F)F)s4)CC3C2)c(C(=O)Nc2ccc(F)c(Cl)c2)c1N (stereo not shown) [Example 134, 5-Amino-N-(3-chloro-4-fluorophenyl)-1-methyl-3-(2-(5-(trifluoromethyl)thiazol-2-yl)octahydrocyclopenta[c]pyrrol-5-yl)-1H-pyrazole-4-carboxamide] | 50 to 500 nM | 

Compound | EC50 [1] | also measured
Cn1ncnc1C1(O)CC2CC(c3nn(C)c(N)c3C(=O)Nc3ccc(F)c(Cl)c3)CC2C1 (stereo not shown) [Example 193] | < 10 nM | 
Cn1nc(C2CC3CN(C(=O)Nc4ncc(C(F)(F)F)s4)CC3C2)c(C(=O)Nc2ccc(F)c(Cl)c2)c1N (stereo not shown) [Example 127, 5-(5-Amino-4-((3-chloro-4-fluorophenyl)carbamoyl)-1-methyl-1H-pyrazol-3-yl)-N-(5-(trifluoromethyl)thiazol-2-yl)hexahydrocyclopenta[c]pyrrole-2(1H)-carboxamide] | 50 to 500 nM | 
CC(C)n1nc(N)cc1C1(O)CC2CC(c3nn(C)c(N)c3C(=O)Nc3ccc(F)c(Cl)c3)CC2C1 (stereo not shown) [Example 211] | < 10 nM | 
Cn1nc(C2CC3CC(O)(c4nn[nH]n4)CC3C2)c(C(=O)Nc2ccc(F)c(Cl)c2)c1N (stereo not shown) [Example 171] | > 500 nM | 
Cn1nc(C2CC3CC4(CC3C2)NC(=O)NC4=O)c(C(=O)Nc2ccc(F)c(Cl)c2)c1N (stereo not shown) [Example 116, 5-Amino-N-(3-chloro-4-fluorophenyl)-3-(2,5-dioxohexahydro-1′H-spiro[imidazolidine-4,2′-pentalen]-5′-yl)-1-methyl-1H-pyrazole-4-carboxamide] | 50 to 500 nM | 
Cn1nc(C2CC3CC(O)(c4cn(COP(=O)(OC(C)(C)C)OC(C)(C)C)nc4C(F)(F)F)CC3C2)c(C(=O)Nc2ccc(F)c(Cl)c2)c1N (stereo not shown) [Compd. 6-1, (4-(5-(5-amino-4-((3-chloro-4-fluorophenyl)carbamoyl)-1-methyl-1H-pyrazol-3-yl)-2-hydroxyoctahydropentalen-2-yl)-3-(trifluoromethyl)-1H-pyrazol-1-yl)methyl di-tert-butyl phosphate] | 10 to 50 nM | 
COC(=O)CCC(=O)OCn1cc(C2(O)CC3CC(c4nn(C)c(N)c4C(=O)Nc4ccc(F)c(Cl)c4)CC3C2)c(C(F)(F)F)n1 (stereo not shown) [Example 226] | < 10 nM | 
CC(C)C(=O)NCC1CC2CC(c3nn(C)c(N)c3C(=O)Nc3ccc(F)c(Cl)c3)CC2C1 (stereo not shown) [Example 45, 5-Amino-N-(3-chloro-4-fluorophenyl)-3-(5-(isobutyramidomethyl)octahydropentalen-2-yl)-1-methyl-1H-pyrazole-4-carboxamide] | < 10 nM | 
Cn1nc(C2CC3CC(O)(c4ccc(F)c(F)c4)CC3C2)c(C(=O)Nc2ccc(F)c(Cl)c2)c1N (stereo not shown) [Example 12, 5-Amino-N-(3-chloro-4-fluorophenyl)-3-(5-(3,4-difluorophenyl)-5-hydroxyoctahydropentalen-2-yl)-1-methyl-1H-pyrazole-4-carboxamide] | 10 to 50 nM | 
Cn1nc(C2CC3CC(O)(CNc4cc(N)ncn4)CC3C2)c(C(=O)Nc2ccc(F)c(Cl)c2)c1N (single isomer, unassigned) [Example 205A] |  | EC50 (HepAD38 cells, 5 days, HBV DNA in supernatant by qPCR, Table 1 ranges, read-out: Activity (viral load lowering EC50)): < 10 nM
Cn1nc(C2CC3CC(O)(c4ccc(F)cc4)CC3C2)c(C(=O)Nc2ccc(F)c(Cl)c2)c1N (stereo not shown) [Example 4, 5-Amino-N-(3-chloro-4-fluorophenyl)-3-(5-(4-fluorophenyl)-5-hydroxyoctahydropentalen-2-yl)-1-methyl-1H-pyrazole-4-carboxamide] | 10 to 50 nM | 
Cn1nc(C2CC3CC(CNC(=O)C4CCCC4)CC3C2)c(C(=O)Nc2ccc(F)c(Cl)c2)c1N (stereo not shown) [Example 47, 5-Amino-N-(3-chloro-4-fluorophenyl)-3-(5-(cyclopentanecarboxamidomethyl)octahydropentalen-2-yl)-1-methyl-1H-pyrazole-4-carboxamide] | < 10 nM | 
Cn1nc(C2CC3CC(CNC(=O)C(C)(C)C4CCOCC4)CC3C2)c(C(=O)Nc2ccc(F)c(Cl)c2)c1N (stereo not shown) [Example 63, 5-Amino-N-(3-chloro-4-fluorophenyl)-1-methyl-3-(5-((2-methyl-2-(tetrahydro-2H-pyran-4-yl)propanamido)methyl)octahydropentalen-2-yl)-1H-pyrazole-4-carboxamide] | 10 to 50 nM | 
Cn1nc(C2CC3CC(O)(c4cc(C(F)(F)F)n[nH]4)CC3C2)c(C(=O)Nc2ccc(F)c(Cl)c2)c1N (stereo not shown) [Example 223] | < 10 nM | 
Cn1nc(C2CC3CC(CNS(=O)(=O)c4ccc(OC(F)(F)F)cc4)CC3C2)c(C(=O)Nc2ccc(F)c(Cl)c2)c1N (stereo not shown) [Example 84, 5-Amino-N-(3-chloro-4-fluorophenyl)-1-methyl-3-(5-(((4-(trifluoromethoxy)phenyl)sulfonamido)methyl)octahydropentalen-2-yl)-1H-pyrazole-4-carboxamide] | 50 to 500 nM | 
Cn1nc(C2CC3CC(c4ccccc4)C(O)C3C2)c(C(=O)Nc2ccc(F)c(Cl)c2)c1N (single isomer, unassigned) [Example 145, 5-Amino-N-(3-chloro-4-fluorophenyl)-3-(4-hydroxy-5-phenyloctahydropentalen-2-yl)-1-methyl-1H-pyrazole-4-carboxamide] |  | EC50 [2]: < 100 nM
Cc1ccc(C2(O)CC3CC(c4nn(C)c(N)c4C(=O)Nc4ccc(F)c(Cl)c4)CC3C2)nc1 (stereo not shown) [Example 17, 5-Amino-N-(3-chloro-4-fluorophenyl)-3-(5-hydroxy-5-(5-methylpyridin-2-yl)octahydropentalen-2-yl)-1-methyl-1H-pyrazole-4-carboxamide] | < 10 nM | 
